The values below come from patent US20240270751A1, “Pyrazolopyridinone Compounds” (BeiGene Ltd., priority 2021, published 2024).

The target of one test is DGKα (Homo sapiens (Human), UniProt P23743). Briefly: Biochemical DGK IC50 assay, DGKα ADP-Glo assay. The settings on record: 7.5 nM enzyme, 140 μM ATP, 80 μM DAG. In a few lines:
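ADP-Glo read-out with full-length DGKα on DAG/PS lipid micelle substrate in 25 mM HEPES pH 7.0, 0.5 mM EDTA, 160 mM octyl β-D-glucopyranoside. Compound final concentrations spanned 1.55˜10000 nM or 23.3˜150000 nM.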
For orientation: In ADP-Glo the light output rises with the ADP produced.

The target of a further test is DGKζ (Homo sapiens (Human), UniProt Q13574). Briefly: Biochemical DGK IC50 assay, DGKζ ADP-Glo assay. As to conditions: 0.5 nM enzyme, 140 μM ATP, 80 μM DAG; read-out: DGKζ ADP-Glo assay IC50. In a few lines:
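Full-length human DGKζ, His-TEV tagged and purified from baculovirus-infected Sf9 cells, assayed by ADP-Glo with DAG/PS lipid micelle substrate prepared in 25 mM HEPES pH 7.0 with octyl glucoside. Final compound concentrations spanned 1.55–10000 nM or 23.3–150000 nM.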

SMILES strings stand for the structures.

Sequence of DGKα (P23743 whole entry): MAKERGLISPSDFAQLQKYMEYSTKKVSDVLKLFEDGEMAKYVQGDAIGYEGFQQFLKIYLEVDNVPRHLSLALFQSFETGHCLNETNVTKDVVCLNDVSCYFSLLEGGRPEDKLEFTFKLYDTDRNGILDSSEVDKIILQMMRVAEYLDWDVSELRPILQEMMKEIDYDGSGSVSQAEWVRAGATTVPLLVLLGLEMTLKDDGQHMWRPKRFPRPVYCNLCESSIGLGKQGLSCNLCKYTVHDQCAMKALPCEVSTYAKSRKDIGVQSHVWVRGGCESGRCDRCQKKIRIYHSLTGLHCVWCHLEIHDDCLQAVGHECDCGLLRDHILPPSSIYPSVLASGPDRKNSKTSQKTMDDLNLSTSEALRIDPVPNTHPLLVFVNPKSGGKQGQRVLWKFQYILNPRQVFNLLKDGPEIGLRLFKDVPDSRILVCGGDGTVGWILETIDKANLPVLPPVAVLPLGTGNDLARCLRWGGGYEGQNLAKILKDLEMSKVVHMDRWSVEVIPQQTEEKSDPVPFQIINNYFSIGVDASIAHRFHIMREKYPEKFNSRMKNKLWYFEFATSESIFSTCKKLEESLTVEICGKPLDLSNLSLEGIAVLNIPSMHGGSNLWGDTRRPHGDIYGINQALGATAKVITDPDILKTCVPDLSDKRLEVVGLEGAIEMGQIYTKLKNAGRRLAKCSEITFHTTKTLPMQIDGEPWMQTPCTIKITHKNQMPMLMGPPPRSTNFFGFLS
Sequence of DGKζ (Q13574 other isoform, or with tags, fused parts or gaps): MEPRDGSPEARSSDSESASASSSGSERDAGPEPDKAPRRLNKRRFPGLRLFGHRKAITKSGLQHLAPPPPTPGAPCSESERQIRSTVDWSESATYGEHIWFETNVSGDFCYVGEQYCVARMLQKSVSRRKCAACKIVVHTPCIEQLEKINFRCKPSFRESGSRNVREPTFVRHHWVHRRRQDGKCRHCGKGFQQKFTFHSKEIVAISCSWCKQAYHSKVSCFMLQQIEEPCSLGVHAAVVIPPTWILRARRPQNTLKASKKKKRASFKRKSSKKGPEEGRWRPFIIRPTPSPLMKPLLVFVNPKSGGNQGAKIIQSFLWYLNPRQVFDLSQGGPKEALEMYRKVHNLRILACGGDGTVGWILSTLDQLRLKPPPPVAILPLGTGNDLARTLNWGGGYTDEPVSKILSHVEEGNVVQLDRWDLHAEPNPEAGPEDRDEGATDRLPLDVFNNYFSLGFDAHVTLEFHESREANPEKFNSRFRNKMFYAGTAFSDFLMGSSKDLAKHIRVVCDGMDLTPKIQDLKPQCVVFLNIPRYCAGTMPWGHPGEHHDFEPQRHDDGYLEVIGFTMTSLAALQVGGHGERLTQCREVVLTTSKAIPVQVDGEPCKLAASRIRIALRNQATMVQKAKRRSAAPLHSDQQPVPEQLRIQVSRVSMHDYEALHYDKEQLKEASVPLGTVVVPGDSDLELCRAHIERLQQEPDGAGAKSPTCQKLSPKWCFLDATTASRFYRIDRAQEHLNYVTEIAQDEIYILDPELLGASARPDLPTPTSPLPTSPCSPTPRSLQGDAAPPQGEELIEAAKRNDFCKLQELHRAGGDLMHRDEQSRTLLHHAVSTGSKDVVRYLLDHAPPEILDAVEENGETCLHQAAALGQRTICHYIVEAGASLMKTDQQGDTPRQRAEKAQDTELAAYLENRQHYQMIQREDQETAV

Regarding `Cc1c2c(nn1CC#N)c(N1C[C@@H](C)N(C(C)c3ccc4nccnc4c3)C[C@@H]1C)cc(=O)n2C` (stereo partly drawn) [Compound A209, 2-(7-((2S,5R)-2,5-dimethyl-4-(1-(quinoxalin-6-yl)ethyl)piperazin-1-yl)-3,4-dimethyl-5-oxo-4,5-dihydro-2H-pyrazolo[4,3-b]pyridin-2-yl)acetonitrile], the results for the IC50 against DGKα and at DGKζ were 21.6 µM and 50 nM, respectively.

With `CC[C@H]1CN(C(C)c2cc(C(F)(F)F)nn2CC)[C@H](CC)CN1c1cc(=O)n(C)c2cn(CC#N)nc12` (stereo partly drawn) [Compound A210], the IC50 (usually the concentration that inhibits the measured activity by half) turned out to be 11.2 µM on DGKα and 369 nM at DGKζ.

With `CC[C@H]1CN(C(C)c2cc(C(F)(F)F)nn2CC)[C@H](CC)CN1c1cc(=O)n(C)c2cn(CC#N)nc12` (stereo partly drawn) [Compound A211], the IC50 at DGKα was 2.76 µM; at DGKζ, 234 nM.

With `CC[C@H]1CN(C(C)c2cc(Cl)nn2CC)[C@H](CC)CN1c1cc(=O)n(C)c2cn(CC#N)nc12` (stereo partly drawn) [Compound A212], the IC50 against DGKα was greater than 10 µM; on DGKζ, 1130 nM.

On to `CC[C@H]1CN(C(C)c2nc3ccccc3n2CCO)[C@H](CC)CN1c1cc(=O)n(C)c2cn(CC#N)nc12` (stereo partly drawn) [Compound A214], for which the 50% inhibitory concentration (IC50) at DGKα is greater than 10 µM; at DGKζ, 3430 nM.

`CC[C@H]1CN(C(C)c2nn(CC)cc2C)[C@H](CC)CN1c1cc(=O)n(C)c2cn(CC#N)nc12` (stereo partly drawn) [Compound A216]: the values for the IC50 on DGKα and on DGKζ were greater than 10 µM and 2370 nM, respectively.

As to `CC[C@H]1CN(C(C)c2cccnc2C(F)(F)F)[C@H](CC)CN1c1cc(=O)n(C)c2cn(CC#N)nc12` (stereo partly drawn) [Compound A217], the IC50 is greater than 10 µM at DGKα and 378 nM at DGKζ.

For the compound `CC[C@H]1CN(C(C)c2cnc(C)n2CC)[C@H](CC)CN1c1cc(=O)n(C)c2cn(CC#N)nc12` (stereo partly drawn) [Compound A219], the values for the IC50 against DGKα and at DGKζ were greater than 10 µM and greater than 10000 nM, respectively.

Consider `CC(C1CCCCC1)N1C[C@H](C)N(c2cc(=O)n(C)c3cn(CC#N)nc23)C[C@H]1C` (stereo partly drawn) [Compound A223], for which the IC50 on DGKα is greater than 10 µM; on DGKζ, greater than 10000 nM.

Take `CC[C@@H]1CN(c2cc(=O)n(C)c3cn(CC#N)nc23)[C@@H](COC)CN1C(C)c1ccc2nccnc2c1` (stereo partly drawn) [Compound A225, 2-(7-((2R,5R)-5-ethyl-2-(methoxymethyl)-4-(1-(quinoxalin-6-yl)ethyl)piperazin-1-yl)-4-methyl-5-oxo-4,5-dihydro-2H-pyrazolo[4,3-b]pyridin-2-yl)acetonitrile]: the figures for the IC50 on DGKα and on DGKζ were 7.45 µM and 99 nM, respectively.

Regarding `CC[C@H]1CN(C(C)c2cnc(Cl)cc2C(F)(F)F)[C@H](CC)CN1c1cc(=O)n(C)c2cn(CC#N)nc12` (stereo partly drawn) [Compound A226], the figures for the IC50 on DGKα and on DGKζ were 8.43 µM and 2290 nM, respectively.

As to `CC[C@H]1CN(C(C)c2ccnn2CC(F)F)[C@H](CC)CN1c1cc(=O)n(C)c2c[nH]nc12` (stereo partly drawn) [Compound A228, 7-((2S,5R)-4-(1-(1-(2,2-difluoroethyl)-1H-pyrazol-5-yl)ethyl)-2,5-diethylpiperazin-1-yl)-4-methyl-2,4-dihydro-5H-pyrazolo[4,3-b]pyridin-5-one], the IC50 was greater than 10 µM against DGKα and 9200 nM at DGKζ.

Turning to `CC[C@@H]1CN(c2cc(=O)n(C)c3cn(CC#N)nc23)[C@@H](CO)CN1C(C)c1ccc2nccnc2c1` (stereo partly drawn) [Compound A229, 2-(7-((2R,5R)-5-ethyl-2-(hydroxymethyl)-4-(1-(quinoxalin-6-yl)ethyl)piperazin-1-yl)-4-methyl-5-oxo-4,5-dihydro-2H-pyrazolo[4,3-b]pyridin-2-yl)acetonitrile], the figures for the IC50 against DGKα and on DGKζ were 24.1 µM and 166 nM, respectively.

Regarding `CC[C@H]1CN(C(C)c2cn(C)nc2C(F)(F)F)[C@H](CC)CN1c1cc(=O)n(C)c2cn(CC#N)nc12` (stereo partly drawn) [Compound A232, 2-(7-((2S,5R)-2,5-diethyl-4-(1-(1-methyl-3-(trifluoromethyl)-1H-pyrazol-4-yl)ethyl)piperazin-1-yl)-4-methyl-5-oxo-4,5-dihydro-2H-pyrazolo[4,3-b]pyridin-2-yl)acetonitrile], the results for the IC50 against DGKα and at DGKζ were 8.49 µM and 3110 nM, respectively.

`CC[C@H]1CN(C(C)c2cnn(C)c2C(F)(F)F)[C@H](CC)CN1c1cc(=O)n(C)c2cn(CC#N)nc12` (stereo partly drawn) [Compound A233, 2-(7-((2S,5R)-2,5-diethyl-4-(1-(1-methyl-5-(trifluoromethyl)-1H-pyrazol-4-yl)ethyl)piperazin-1-yl)-4-methyl-5-oxo-4,5-dihydro-2H-pyrazolo[4,3-b]pyridin-2-yl)acetonitrile]: the IC50 came out at 6.98 µM on DGKα and 33 nM on DGKζ.

Regarding `CC[C@H]1CN(C(C)c2cnn(C)c2C(F)F)[C@H](CC)CN1c1cc(=O)n(C)c2cn(CC#N)nc12` (stereo partly drawn) [Compound A234], the IC50 is 7.33 µM against DGKα and 159 nM at DGKζ.

Take `CC[C@H]1CN(C(C)c2cnc(C)cc2C(F)(F)F)[C@H](CC)CN1c1cc(=O)n(C)c2cn(CC#N)nc12` (stereo partly drawn) [Compound A235]: the IC50 is greater than 10 µM against DGKα and 5380 nM at DGKζ.

In the case of `CC[C@H]1CN(C(C)c2cncn2CC(F)F)[C@H](CC)CN1c1cc(=O)n(C)c2cn(CC#N)nc12` (stereo partly drawn) [Compound A237], the IC50 against DGKα was greater than 10 µM; on DGKζ, 1350 nM.

As to `CC[C@H]1CN(C(C)c2cnc(C(F)(F)F)n2CC)[C@H](CC)CN1c1cc(=O)n(C)c2cn(CC#N)nc12` (stereo partly drawn) [Compound A239], the values for the half-maximal inhibitory concentration (IC50) against DGKα and at DGKζ were greater than 10 µM and 391 nM, respectively.

As to `CC[C@H]1CN(C(C)c2nn(CC)cc2C#N)[C@H](CC)CN1c1cc(=O)n(C)c2cn(CC#N)nc12` (stereo partly drawn) [Compound A240, 3-(1-((2R,5S)-4-(2-(cyanomethyl)-4-methyl-5-oxo-4,5-dihydro-2H-pyrazolo[4,3-b]pyridin-7-yl)-2,5-diethylpiperazin-1-yl)ethyl)-1-ethyl-1H-pyrazole-4-carbonitrile], the results for the concentration for half-maximal inhibition (IC50) against DGKα and at DGKζ were 0.948 µM and 2010 nM, respectively.

Turning to `CC[C@@H]1CN(c2cc(=O)n(C)c3cn(CC#N)nc23)[C@@H](CC)CN1Cc1ccc(F)cc1C(F)(F)F` [Compound A241], the figures for the IC50 at DGKα and on DGKζ were 6.43 µM and 270 nM, respectively.

Take `CC(C1CCOCC1)N1C[C@H](C)N(c2cc(=O)n(C)c3cn(CC#N)nc23)C[C@H]1C` (stereo partly drawn) [Compound A242]: the IC50 on DGKα is greater than 10 µM; at DGKζ, greater than 10000 nM.

Take `C[C@@H]1CN(c2nc(=O)n(C)c3c(Cl)n(CC#N)nc23)[C@@H](C)CN1[C@H](C)c1ccc2nccnc2c1` [Compound A245, 2-(3-chloro-7-((2S,5R)-2,5-dimethyl-4-((R)-1-(quinoxalin-6-yl)ethyl)piperazin-1-yl)-4-methyl-5-oxo-4,5-dihydro-2H-pyrazolo[4,3-d]pyrimidin-2-yl)acetonitrile, or 2-(3-chloro-7-((2S,5R)-2,5-dimethyl-4-((S)-1-(quinoxalin-6-yl)ethyl)piperazin-1-yl)-4-methyl-5-oxo-4,5-dihydro-2H-pyrazolo[4,3-d]pyrimidin-2-yl)acetonitrile]: the IC50 is greater than 10 µM on DGKα and 87 nM on DGKζ.

Consider `C[C@@H]1CN(c2cc(=O)n(C)c3cn(CC#N)nc23)[C@@H](C)CN1Cc1ccc(F)cc1C(F)(F)F` [Compound A246], for which the results for the IC50 at DGKα and on DGKζ were 9.72 µM and 1070 nM, respectively.
